{"source": "PubChem BioAssay AID2060497", "about": "(Molecular Pharmacology Branch, DTP, NCI, 2025);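 note: spheroids exposed to compounds for one week before readout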;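 for viability, T/C: percent viability relative to DMSO vehicle wells taken as 100%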", "system": "317291-083-R-J1-PDC complex spheroids, viability", "test": "Anticancer human tumor 317291-083-R-J1-PDC patient-derived soft tissue sarcoma cell line growth inhibition [GQUAD]", "settings": "for IC50: curve of first compound; for viability, T/C: stronger effect = lower value", "in_short": "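Multi-cell-type spheroids of tumor cells with HUVEC and mesenchymal stem cells, treated with drug combinations. Concentrations descend in half-log steps from near clinical Cmax, or from 10 microM where Cmax is unknown; viability read-out.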", "key": {"[1]": {"settings": "second compound 0.0316 µM, first compound 0.0316 µM"}, "[2]": {"settings": "second compound 0.0316 µM, first compound 0.316 µM"}, "[3]": {"settings": "second compound 0.1 µM, first compound 0.0316 µM"}, "[4]": {"settings": "second compound 0.1 µM, first compound 0.316 µM"}, "[5]": {"settings": "second compound 0.316 µM, first compound 0.0316 µM"}, "[6]": {"settings": "second compound 0.316 µM, first compound 0.316 µM"}, "[7]": {"settings": "second compound 1 µM, first compound 0.0316 µM"}, "[8]": {"settings": "second compound 1 µM, first compound 0.316 µM"}, "[9]": {"settings": "second compound 3.16 µM, first compound 0.0316 µM"}, "[10]": {"settings": "second compound 3.16 µM, first compound 0.316 µM"}, "[11]": {"settings": "second compound 10 µM, first compound 0.0316 µM"}, "[12]": {"settings": "second compound 10 µM, first compound 0.316 µM"}}}
{"smiles": "Cn1ncnc1[C@H]1c2n[nH]c(=O)c3cc(F)cc(c23)N[C@@H]1c1ccc(F)cc1", "note": "+ CN(C)c1ccc(Nc2c3ccc(NC(=O)CCN4CCCC4)cc3nc3cc(NC(=O)CCN4CCCC4)ccc23)cc1", "values": [{"measurement": "IC50", "setting": "second compound 0.0316 µM", "result": "> 316", "unit": "nM"}, {"measurement": "IC50", "setting": "second compound 0.1 µM", "result": "> 316", "unit": "nM"}, {"measurement": "IC50", "setting": "second compound 0.316 µM", "result": 205, "unit": "nM"}, {"measurement": "IC50", "setting": "second compound 1 µM", "result": 14.9, "unit": "nM"}, {"measurement": "IC50", "setting": "second compound 3.16 µM", "result": "< 0.999", "unit": "nM"}, {"measurement": "IC50", "setting": "second compound 10 µM", "result": "< 0.999", "unit": "nM"}, {"measurement": "viability, T/C", "setting": "second compound 0.0316 µM, first compound 0.000999 µM", "result": 112, "unit": "%"}, {"measurement": "viability, T/C", "setting": "second compound 0.0316 µM, first compound 0.00316 µM", "result": 94, "unit": "%"}, {"measurement": "viability, T/C", "setting": "second compound 0.0316 µM, first compound 0.00999 µM", "result": 85, "unit": "%"}, {"measurement": "viability, T/C", "setting": "[1]", "result": 74.7, "unit": "%"}, {"measurement": "viability, T/C", "setting": "second compound 0.0316 µM, first compound 0.0999 µM", "result": 67.4, "unit": "%"}, {"measurement": "viability, T/C", "setting": "[2]", "result": 66.6, "unit": "%"}, {"measurement": "viability, T/C", "setting": "second compound 0.1 µM, first compound 0.000999 µM", "result": 115, "unit": "%"}, {"measurement": "viability, T/C", "setting": "second compound 0.1 µM, first compound 0.00316 µM", "result": 87.6, "unit": "%"}, {"measurement": "viability, T/C", "setting": "second compound 0.1 µM, first compound 0.00999 µM", "result": 90.3, "unit": "%"}, {"measurement": "viability, T/C", "setting": "[3]", "result": 87.6, "unit": "%"}, {"measurement": "viability, T/C", "setting": "second compound 0.1 µM, first compound 0.0999 µM", "result": 81.9, "unit": "%"}, {"measurement": "viability, T/C", "setting": "[4]", "result": 65.3, "unit": "%"}, {"measurement": "viability, T/C", "setting": "second compound 0.316 µM, first compound 0.000999 µM", "result": 68.9, "unit": "%"}, {"measurement": "viability, T/C", "setting": "second compound 0.316 µM, first compound 0.00316 µM", "result": 79.3, "unit": "%"}, {"measurement": "viability, T/C", "setting": "second compound 0.316 µM, first compound 0.00999 µM", "result": 72.8, "unit": "%"}, {"measurement": "viability, T/C", "setting": "[5]", "result": 61.9, "unit": "%"}, {"measurement": "viability, T/C", "setting": "second compound 0.316 µM, first compound 0.0999 µM", "result": 60.5, "unit": "%"}, {"measurement": "viability, T/C", "setting": "[6]", "result": 44.6, "unit": "%"}, {"measurement": "viability, T/C", "setting": "second compound 1 µM, first compound 0.000999 µM", "result": 54.3, "unit": "%"}, {"measurement": "viability, T/C", "setting": "second compound 1 µM, first compound 0.00316 µM", "result": 49.3, "unit": "%"}, {"measurement": "viability, T/C", "setting": "second compound 1 µM, first compound 0.00999 µM", "result": 62.1, "unit": "%"}, {"measurement": "viability, T/C", "setting": "[7]", "result": 34.1, "unit": "%"}, {"measurement": "viability, T/C", "setting": "second compound 1 µM, first compound 0.0999 µM", "result": 38.2, "unit": "%"}, {"measurement": "viability, T/C", "setting": "[8]", "result": 47.9, "unit": "%"}, {"measurement": "viability, T/C", "setting": "second compound 3.16 µM, first compound 0.000999 µM", "result": 35.7, "unit": "%"}, {"measurement": "viability, T/C", "setting": "second compound 3.16 µM, first compound 0.00316 µM", "result": 24, "unit": "%"}, {"measurement": "viability, T/C", "setting": "second compound 3.16 µM, first compound 0.00999 µM", "result": 24.9, "unit": "%"}, {"measurement": "viability, T/C", "setting": "[9]", "result": 18.5, "unit": "%"}, {"measurement": "viability, T/C", "setting": "second compound 3.16 µM, first compound 0.0999 µM", "result": 28.6, "unit": "%"}, {"measurement": "viability, T/C", "setting": "[10]", "result": 17.7, "unit": "%"}, {"measurement": "viability, T/C", "setting": "second compound 10 µM, first compound 0.000999 µM", "result": 9.05, "unit": "%"}, {"measurement": "viability, T/C", "setting": "second compound 10 µM, first compound 0.00316 µM", "result": 13.8, "unit": "%"}, {"measurement": "viability, T/C", "setting": "second compound 10 µM, first compound 0.00999 µM", "result": 8.55, "unit": "%"}, {"measurement": "viability, T/C", "setting": "[11]", "result": 12.2, "unit": "%"}, {"measurement": "viability, T/C", "setting": "second compound 10 µM, first compound 0.0999 µM", "result": 5.71, "unit": "%"}, {"measurement": "viability, T/C", "setting": "[12]", "result": 8.04, "unit": "%"}]}
{"smiles": "Nc1ccn(C2OC(CO)C(O)C2(F)F)c(=O)n1", "note": "(centres undefined) + Cc1[nH]c2ccc(F)cc2c1-c1nc2c3cccnc3c3ncccc3c2[nH]1", "values": [{"measurement": "IC50", "setting": "second compound 0.0316 µM", "result": 44.8, "unit": "nM"}, {"measurement": "IC50", "setting": "second compound 0.1 µM", "result": 42.8, "unit": "nM"}, {"measurement": "IC50", "setting": "second compound 0.316 µM", "result": 32.8, "unit": "nM"}, {"measurement": "IC50", "setting": "second compound 1 µM", "result": 37.1, "unit": "nM"}, {"measurement": "IC50", "setting": "second compound 3.16 µM", "result": 35.1, "unit": "nM"}, {"measurement": "IC50", "setting": "second compound 10 µM", "result": "< 31.6", "unit": "nM"}, {"measurement": "viability, T/C", "setting": "[1]", "result": 63, "unit": "%"}, {"measurement": "viability, T/C", "setting": "second compound 0.0316 µM, first compound 0.1 µM", "result": 20.3, "unit": "%"}, {"measurement": "viability, T/C", "setting": "[2]", "result": 11.9, "unit": "%"}, {"measurement": "viability, T/C", "setting": "second compound 0.0316 µM, first compound 1 µM", "result": 11, "unit": "%"}, {"measurement": "viability, T/C", "setting": "second compound 0.0316 µM, first compound 3.16 µM", "result": 11.8, "unit": "%"}, {"measurement": "viability, T/C", "setting": "second compound 0.0316 µM, first compound 10 µM", "result": 8.15, "unit": "%"}, {"measurement": "viability, T/C", "setting": "[3]", "result": 57.9, "unit": "%"}, {"measurement": "viability, T/C", "setting": "second compound 0.1 µM, first compound 0.1 µM", "result": 27.4, "unit": "%"}, {"measurement": "viability, T/C", "setting": "[4]", "result": 14.8, "unit": "%"}, {"measurement": "viability, T/C", "setting": "second compound 0.1 µM, first compound 1 µM", "result": 12.3, "unit": "%"}, {"measurement": "viability, T/C", "setting": "second compound 0.1 µM, first compound 3.16 µM", "result": 11, "unit": "%"}, {"measurement": "viability, T/C", "setting": "second compound 0.1 µM, first compound 10 µM", "result": 9.19, "unit": "%"}, {"measurement": "viability, T/C", "setting": "[5]", "result": 51.2, "unit": "%"}, {"measurement": "viability, T/C", "setting": "second compound 0.316 µM, first compound 0.1 µM", "result": 16.1, "unit": "%"}, {"measurement": "viability, T/C", "setting": "[6]", "result": 13.1, "unit": "%"}, {"measurement": "viability, T/C", "setting": "second compound 0.316 µM, first compound 1 µM", "result": 16.2, "unit": "%"}, {"measurement": "viability, T/C", "setting": "second compound 0.316 µM, first compound 3.16 µM", "result": 10.3, "unit": "%"}, {"measurement": "viability, T/C", "setting": "second compound 0.316 µM, first compound 10 µM", "result": 8.34, "unit": "%"}, {"measurement": "viability, T/C", "setting": "[7]", "result": 55.6, "unit": "%"}, {"measurement": "viability, T/C", "setting": "second compound 1 µM, first compound 0.1 µM", "result": 15.8, "unit": "%"}, {"measurement": "viability, T/C", "setting": "[8]", "result": 10.5, "unit": "%"}, {"measurement": "viability, T/C", "setting": "second compound 1 µM, first compound 1 µM", "result": 9.19, "unit": "%"}, {"measurement": "viability, T/C", "setting": "second compound 1 µM, first compound 3.16 µM", "result": 9.71, "unit": "%"}, {"measurement": "viability, T/C", "setting": "second compound 1 µM, first compound 10 µM", "result": 8.18, "unit": "%"}, {"measurement": "viability, T/C", "setting": "[9]", "result": 52.8, "unit": "%"}, {"measurement": "viability, T/C", "setting": "second compound 3.16 µM, first compound 0.1 µM", "result": 22.5, "unit": "%"}, {"measurement": "viability, T/C", "setting": "[10]", "result": 12, "unit": "%"}, {"measurement": "viability, T/C", "setting": "second compound 3.16 µM, first compound 1 µM", "result": 12, "unit": "%"}, {"measurement": "viability, T/C", "setting": "second compound 3.16 µM, first compound 3.16 µM", "result": 11.2, "unit": "%"}, {"measurement": "viability, T/C", "setting": "second compound 3.16 µM, first compound 10 µM", "result": 10.7, "unit": "%"}, {"measurement": "viability, T/C", "setting": "[11]", "result": 40.3, "unit": "%"}, {"measurement": "viability, T/C", "setting": "second compound 10 µM, first compound 0.1 µM", "result": 13.2, "unit": "%"}, {"measurement": "viability, T/C", "setting": "[12]", "result": 10.2, "unit": "%"}, {"measurement": "viability, T/C", "setting": "second compound 10 µM, first compound 1 µM", "result": 8.15, "unit": "%"}, {"measurement": "viability, T/C", "setting": "second compound 10 µM, first compound 3.16 µM", "result": 13.3, "unit": "%"}, {"measurement": "viability, T/C", "setting": "second compound 10 µM, first compound 10 µM", "result": 9.1, "unit": "%"}]}
